Consider three compounds from US20040039023A1, “Therapeutic agents” (priority 2000, published 2004).

Structures are written as SMILES.

For orientation: melting point means the temperature of the solid-liquid transition. The term Ki denotes a measure of affinity in units of concentration, obtained from inhibition or displacement. Lower therefore signals tighter binding. For orientation: ED50 means the dose that gives a 50% effect, or the effect in half of the subjects.

Series [1] addresses T1, D2 dopamine receptors (Rattus norvegicus, UniProt P61169).
T1 construct: Striatal tissue from the brains of male Charles River CD rats; from tissue; host or cells: rat striatum membrane homogenate
Put plainly: Inhibition of tritiated (S)-sulpiride binding to D2 dopamine receptors, rat striatal tissue. The following applies: ligand tritiated (S)-sulpiride 1 nM.
Experimental: Striatal tissue from the brains of male Charles River CD rats weighing between 140-250 g were homogenised in ice-cold 50 mM Tris-HCl buffer (pH 7.7 when measured at 25° C.) and centrifuged at 40,000 g for 10 minutes. The pellet was resuspended in Tris salts buffer (50 mM Tris-HCl buffer containing 120 mM NaCl, 5 mM KCl, 2 mM CaCl2 and 1 mM MgCl2 with the addition of 6 mM ascorbic acid; pH 7.7 when measured at 25° C.), and again centrifuged at 40,000 g for 10 minutes. The final pellet was stored at −80° C. Before each test the pellet was resuspended in Tris salts buffer (equivalent to 2 mg wet weight of tissue/ml). […]
The filters were washed with ice-cold Tris-HCl buffer and dried. The filters were punched out in to vials, scintillation fluid added and were left for about 20 hours before being counted by scintillation spectrophotometry. The percentage displacement of specific binding of the tritiated ligand was calculated for the single concentration (10^−6 M) of test compound. […] The inhibition coefficient Ki was then calculated using the formula [formula] […]

Series [2] concerns apomorphine-induced climbing in mice. Put plainly: Antagonism of apomorphine-induced climbing in mice. Format: in vivo. The following applies: male mice; for ED50: Mus musculus, po 30 minutes before apomorphine 0.88 mg/kg sc, free base equivalents, read-out: ED50 (dose causing 50% of the control score); for duration: po, antagonism of apomorphine-induced climbing. The protocol:
Antagonism of Apomorphine-Induced Climbing in Mice Groups of 10 male mice weighing […] (max. range 10 g) were treated with test compound or control vehicle by po administration. 30 minutes later, mice were injected subcutaneously with apomorphine (0.88 mg/kg). Immediately after the apomorphine injection the mice were placed in the test cages and the climbing behaviour of each mouse was assessed at 10 and 20 minutes on a simple 0-2 ranking scale. The ED50 values (dose causing 50% of the control score) for the test compounds and 95% confidence limits were calculated.

Series [3] addresses α1-adrenoceptors. Put plainly: Inhibition of [7-methoxy-3H]prazosin binding to α1-adrenoceptors, rat whole cortical tissue. The settings on record: ligand [7-methoxy-3H]prazosin 0.1 nM. The protocol: Whole cortical tissue from the brains of male Charles River CD rats weighing between 150-250 g were homogenised in ice-cold 50 mM Tris-HCl, pH 7.6 (at 25° C.; 1:40 w/v) and centrifuged at 1000 g at 4° C. for 10 minutes. The supernatant was centrifuged at 30,000 g at 4° C. for 10 minutes. The pellet was rehomogenised in 50 mM Tris-HCl, pH 7.6 (1:40 w/v) and centrifuged at 30,000 g at 4° C. for 10 minutes. The final pellet was resuspended in 50 mM Tris-HCl, pH 7.6 (equivalent to 12.5 mg wet weight of tissue/ml) and used immediately in the binding assay. Aliquots (400 μl; equivalent to 5 mg wet weight of tissue/tube) of this suspension were added to tubes containing the ligand (50 μl; 0.1 nM) and distilled water (50 μl; total binding) or phentolamine (50 μl; 5 μM; non-specific binding) or test compound (50 μl; at a single concentration of 10^−6M or at 10 concentrations ranging from 10^−11-10^−3M). The ligand was [7-methoxy-^3H]prazosin and the mixture was incubated at 30° C. for 30 minutes before the incubation was terminated by rapid filtration.
(§1) The filters were washed with ice-cold Tris-HCl buffer and dried. The filters were punched out into vials, scintillation fluid added and radioactivity determined by liquid scintillation counting. The percentage displacement of specific binding of the tritiated ligand was calculated for the single concentration (10^−6 M) of test compound. Displacement curves were then produced for those compounds which displaced ≧50% of specific binding of the tritiated ligand at 10^−6 M using a range of concentrations of the compound. The concentration which gave 50% inhibition of specific binding (IC50) was obtained from the curve. The inhibition coefficient Ki was then calculated using the formula [formula]
(§2) in which [ligand] is the concentration of the tritiated ligand used and KD is the equilibrium dissociation constant for the ligand.

For series [4], the target named is T2, 5-HT1A receptors (Rattus norvegicus, UniProt P19327).
T2 construct: Hippocampal tissue from the brains of male Charles River CD rats; from tissue; host or cells: rat hippocampus membrane homogenate
T2 sequence (P19327 1-422): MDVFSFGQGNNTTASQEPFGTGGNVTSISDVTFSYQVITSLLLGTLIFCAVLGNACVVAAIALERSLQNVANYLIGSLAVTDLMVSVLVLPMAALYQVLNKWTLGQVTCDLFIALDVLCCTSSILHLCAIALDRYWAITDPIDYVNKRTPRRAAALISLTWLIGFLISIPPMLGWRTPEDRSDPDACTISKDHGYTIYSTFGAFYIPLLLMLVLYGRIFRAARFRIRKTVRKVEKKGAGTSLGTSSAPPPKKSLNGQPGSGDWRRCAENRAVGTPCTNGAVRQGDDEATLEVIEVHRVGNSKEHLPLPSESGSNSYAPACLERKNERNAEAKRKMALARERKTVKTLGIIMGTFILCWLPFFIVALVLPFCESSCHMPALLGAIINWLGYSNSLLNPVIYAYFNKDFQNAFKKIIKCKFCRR
The series is described as follows: Inhibition of [3H]8-OH-DPAT binding to 5-HT1A receptors, rat hippocampal tissue. The following applies: ligand [3H]8-OH-DPAT 2 nM. As for the experimental part:
Hippocampal tissue from the brains of male Charles River CD rats weighing between 150-250 g were homogenised in ice-cold 50 mM Tris-HCl buffer (pH 7.7) when measured at 25° C., 1:40 w/v) and centrifuged at 30,000 g at 4° C. for 10 minutes. The pellet was rehomogenised in the same buffer, incubated at 37° C. for 10 minutes and centrifuged at 30,000 g at 4° C. for 10 minutes. The final pellet was resuspended in 50 mM Tris-HCl buffer (pH 7.7) containing 4 mM CaCl2, 0.1% L-ascorbic acid and 10 μM pargyline hydrochloride (equivalent to 6.25 mg wet weight of tissue/ml) and used immediately in the binding assay. Aliquots (400 μl; equivalent to 2.5 mg wet weight of tissue/tube) of this suspension were added to tubes containing the ligand (50 μl; 2 nM) and distilled water (50 μl; total binding) or 5-HT (50 μl; 10 μM; non-specific binding) or test compound (50 μl; at a single concentration of 10^−6 M or at 10 concentrations ranging from 10^−11-10^−3 M). The ligand was [^3H]8-hydroxy-2-(dipropylamino)tetralin ([^3H]8-OH-DPAT) and the mixture was incubated at 25° C. for 30 minutes before the incubation was terminated by rapid filtration.
as §1, §2

T1 sequence (P61169 whole entry): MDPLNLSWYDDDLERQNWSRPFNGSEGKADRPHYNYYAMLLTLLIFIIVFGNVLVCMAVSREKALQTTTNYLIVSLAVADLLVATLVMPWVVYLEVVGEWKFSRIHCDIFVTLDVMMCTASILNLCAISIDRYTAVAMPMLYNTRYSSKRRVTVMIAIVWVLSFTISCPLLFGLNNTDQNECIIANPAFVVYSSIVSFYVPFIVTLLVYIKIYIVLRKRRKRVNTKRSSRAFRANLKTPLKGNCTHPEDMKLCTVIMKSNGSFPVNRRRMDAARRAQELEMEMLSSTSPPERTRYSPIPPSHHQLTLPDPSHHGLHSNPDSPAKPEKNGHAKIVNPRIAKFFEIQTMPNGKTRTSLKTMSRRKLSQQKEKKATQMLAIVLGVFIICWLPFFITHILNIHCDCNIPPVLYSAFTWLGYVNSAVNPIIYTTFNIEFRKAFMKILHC

The compound `Oc1ccccc1N1CCC(CNC[C@H]2COc3ccc(Cl)cc3O2)CC1` [Example 1, (S)-(−)-2-{4-[N-(7-chloro-2,3-dihydro-1,4-benzodioxin-2-ylmethyl)aminomethyl]piperidino}phenol] returned a melting point of 84 to 86 °C. Also, the Ki in series [1] is 11 nM. Besides, in series [2], the ED50 came to 3 mg/kg and the duration result was “[>6 h]”. Also, in series [3], the affinity corresponds to a Ki of 101 nM. This compound registered a Ki in series [4] of 12 nM.

Regarding `COc1ccccc1N1CCC(CNC[C@H]2COc3ccc(Cl)cc3O2)CC1` [Comparative Example A, (S)-(−)-N-(7-Chloro-1,4-benzodioxan-2-ylmethyl)-1-(1-(2-methoxyphenyl)piperid-4-yl)methylamine, reference compound], in series [2], the ED50 is 5 mg/kg and the duration result was “[>6 h]”. Moreover, in series [3], the Ki was 53 nM. In series [4], this compound came in with an inhibition constant (Ki) of 22 nM.

With `Oc1ccccc1N1CCC(CNC[C@H]2COc3ccc(C(F)(F)F)cc3O2)CC1` [Example 2, (S)-(−)-2-{4-[N-(7-trifluoromethyl-2,3-dihydro-1,4-benzodioxin-2-ylmethyl)aminomethyl]piperidino}phenol], the figures for the Ki in series [1], in series [3] and in series [4] were 25 nM, 573 nM and 37 nM, respectively. The ED50 in series [2] stood at 0.6 mg/kg. For the same compound, the duration result in series [2] is “[>4 h]”.
